Measurements as given in US6172079A, “5-substituted-3-oxadiazolyl-1,6-naphthyridin-2(1H)-one derivatives” (Dainippon Pharmaceutical Co., Ltd., priority 1997, dated 2001).

What was measured:
[1] = system: GABAA receptor complex (TBPS binding); test: TBPS Binding Assay; design: species or system Wistar rats; settings: [35S]TBPS 0.4 nM, GABA 1 μM, rat cerebral cortex membrane, +% inverse agonistic, 0% antagonistic
Protocol: The TBPS (t-butylbicyclophosphonothionate) binding assay and the preparation of the membrane specimen were done in a similar manner to the method of Biggio, G. et al. [cf. European Journal of Pharmacology, vol.
That is, to the cerebral cortex was added a 50-fold volume of an ice-cooled buffer (a 50 mM Tris-citrate buffer containing 100 mM sodium chloride, pH 7.4) and the mixture was homogenized at 0-4° C. and then centrifuged at 20,000 g for 20 minutes. The pellets thus obtained were once subjected to homogenization in a buffer and centrifugation by the same procedure as above and then kept in freezed state at -80° C. for more than 20 hours. On the test day, the freezed pellets were thawed and then subjected twice to the homogenization-centrifugation procedure as described above.
Subsequently, the filter was moved into a liquid scintillation vial and thereto was added a liquid scintillation cocktail (ACS-II, manufactured by Amersham, USA, 10 ml) and allowed to stand for a fixed period of time. […] Separately, the same procedures were repeated in the presence of Picrotoxin to determine the non-specific binding amount. The non-specific binding amount was deducted from the total binding amount to give the specific binding amount. The binding activity of the test compound was calculated by a variation rate, i.e., a rate of the specific binding amount of the test compound to the specific binding amount in control (using a solvent).

benzodiazepine receptor = test: Benzodiazepine Receptor Binding Assay; settings: read-out: BZP-receptor Binding IC50; [3H]-diazepam 1.5 nM; rat brain crude synaptosome membrane; 0° C., 20 min

Row | TBPS binding Variation Rate [1] [%] | IC50 (benzodiazepine receptor) [nM] | Compound
1 | 53 | – | Cc1nc(-c2cc3c(C)nccc3[nH]c2=O)no1 [Example 2]
2 | 12 | 3.58 | Cc1nc(-c2cc3c(CC(C)C)nccc3[nH]c2=O)no1 [Example 3]
3 | 12 | 2.39 | Cc1nc(-c2cc3c(-c4cccc(Cl)c4)nccc3[nH]c2=O)no1 [Example 7]
4 | 13 | – | Cc1nc(-c2cc3c(-c4ccc(Cl)cc4)nccc3[nH]c2=O)no1 [Example 8]
5 | 24 | – | CCc1nc(-c2cc3c(C)nccc3[nH]c2=O)no1 [Example 13]
6 | 38 | 9.45 | CCc1nc(-c2cc3c(CC)nccc3[nH]c2=O)no1 [Example 14]
7 | 38 | 3.69 | CCc1nc(-c2cc3c(C(C)C)nccc3[nH]c2=O)no1 [Example 16]
8 | 25 | 0.69 | CCc1nc(-c2cc3c(C4CC4)nccc3[nH]c2=O)no1 [Example 17]
9 | -13 | 2.77 | CCc1nc(-c2cc3c(CC(C)C)nccc3[nH]c2=O)no1 [Example 20]
10 | 21 | 4.21 | CCc1nc(-c2cc3c(C4CCC4)nccc3[nH]c2=O)no1 [Example 21]
11 | -23 | 1.76 | CCc1nc(-c2cc3c(C4CCCCC4)nccc3[nH]c2=O)no1 [Example 23]
12 | 22 | 4.47 | CCc1nc(-c2cc3c(CC4CCCCC4)nccc3[nH]c2=O)no1 [Example 24]
13 | 15 | – | CCCc1nc(-c2cc3c(C(C)C)nccc3[nH]c2=O)no1 [Example 36]
14 | 25 | 1.31 | CCCc1nc(-c2cc3c(-c4ccccc4)nccc3[nH]c2=O)no1 [Example 38]
15 | 28 | – | CC(C)c1nc(-c2cc3c(C(C)C)nccc3[nH]c2=O)no1 [Example 43]
16 | -9 | 0.96 | CC(C)c1nc(-c2cc3c(-c4ccccc4)nccc3[nH]c2=O)no1 [Example 45]
17 | -11 | 2.33 | CC(C)c1nc(-c2cc3c(-c4ccc(F)cc4)nccc3[nH]c2=O)no1 [Example 47]
18 | 18 | 1.49 | CCc1nccc2[nH]c(=O)c(-c3noc(C4CC4)n3)cc12 [Example 48]
19 | 40 | 0.88 | CC(C)c1nccc2[nH]c(=O)c(-c3noc(C4CC4)n3)cc12 [Example 50]
20 | -11 | 0.74 | O=c1[nH]c2ccnc(-c3ccccc3)c2cc1-c1noc(C2CC2)n1 [Example 52]
21 | -16 | 1.66 | O=c1[nH]c2ccnc(-c3cccc(Cl)c3)c2cc1-c1noc(C2CC2)n1 [Example 55]
22 | -15 | 1.52 | Cc1ccc(-c2nccc3[nH]c(=O)c(-c4noc(C5CC5)n4)cc23)cc1 [Example 58]
23 | 32 | 2.35 | Cc1nc(-c2cc3c(-c4ccccc4F)nccc3[nH]c2=O)no1 [Example 87]

Row | TBPS binding Variation Rate [1] [%] | IC50 (benzodiazepine receptor) [nM] | Compound
24 | 38 | 0.61 | Cc1nc(-c2cc3c(-c4ccco4)nccc3[nH]c2=O)no1 [Example 91]
25 | 32 | 0.75 | Cc1nc(-c2cc3c(-c4cccs4)nccc3[nH]c2=O)no1 [Example 92]
26 | 34 | 1.75 | Cc1nc(-c2cc3c(-c4ccsc4)nccc3[nH]c2=O)no1 [Example 93]
27 | 13 | 1.09 | CCc1nc(-c2cc3c(-c4ccccc4F)nccc3[nH]c2=O)no1 [Example 95]
28 | 16 | 2.82 | CCc1nc(-c2cc3c(-c4ccccc4Cl)nccc3[nH]c2=O)no1 [Example 96]
29 | -23 | 1.31 | CCc1nc(-c2cc3c(-c4cccc5ccccc45)nccc3[nH]c2=O)no1 [Example 100]
30 | 20 | 1.96 | CCc1nc(-c2cc3c(-c4cccnc4)nccc3[nH]c2=O)no1 [Example 106]
31 | 17 | 6.56 | CCc1nc(-c2cc3c(-c4ccncc4)nccc3[nH]c2=O)no1 [Example 107]
32 | 12 | 1.12 | O=c1[nH]c2ccnc(-c3ccsc3)c2cc1-c1noc(C2CC2)n1 [Example 123]
33 | 28 | 1.21 | Cc1noc(-c2cc3c(-c4ccccc4)nccc3[nH]c2=O)n1 [Example 175]
34 | 39 | 2.13 | Cc1noc(-c2cc3c(-c4ccccc4F)nccc3[nH]c2=O)n1 [Example 176]
35 | 29 | – | Cc1noc(-c2cc3c(-c4cccc(F)c4)nccc3[nH]c2=O)n1 [Example 177]
36 | 25 | 2.31 | Cc1noc(-c2cc3c(-c4ccc(F)cc4)nccc3[nH]c2=O)n1 [Example 178]
37 | 37 | 4.73 | Cc1noc(-c2cc3c(-c4ccccc4Cl)nccc3[nH]c2=O)n1 [Example 179]
38 | 13 | 1.22 | Cc1noc(-c2cc3c(-c4cccc(Cl)c4)nccc3[nH]c2=O)n1 [Example 180]
39 | 13 | – | Cc1noc(-c2cc3c(-c4ccc(Cl)cc4)nccc3[nH]c2=O)n1 [Example 181]
40 | 19 | – | COc1ccccc1-c1nccc2[nH]c(=O)c(-c3nc(C)no3)cc12 [Example 185]
41 | 27 | 6.42 | COc1ccc(-c2nccc3[nH]c(=O)c(-c4nc(C)no4)cc23)cc1 [Example 187]
42 | 34 | 1.2 | Cc1noc(-c2cc3c(-c4ccco4)nccc3[nH]c2=O)n1 [Example 188]
43 | 29 | 0.84 | Cc1noc(-c2cc3c(-c4cccs4)nccc3[nH]c2=O)n1 [Example 189]
44 | 34 | 1.57 | Cc1noc(-c2cc3c(-c4ccsc4)nccc3[nH]c2=O)n1 [Example 190]
45 | 44 | 4.1 | CCc1noc(-c2cc3c(C(C)C)nccc3[nH]c2=O)n1 [Example 193]
46 | 32 | 1.06 | CCc1noc(-c2cc3c(C4CC4)nccc3[nH]c2=O)n1 [Example 194]

Row | TBPS binding Variation Rate [1] [%] | IC50 (benzodiazepine receptor) [nM] | Compound
47 | -9 | 4.6 | CCc1noc(-c2cc3c(CC(C)C)nccc3[nH]c2=O)n1 [Example 196]
48 | 11 | 1.03 | CCc1noc(-c2cc3c(-c4ccccc4)nccc3[nH]c2=O)n1 [Example 198]
49 | 22 | 2.09 | CCc1noc(-c2cc3c(-c4ccccc4Cl)nccc3[nH]c2=O)n1 [Example 202]
50 | 17 | 1.97 | CCc1noc(-c2cc3c(-c4cccc(Cl)c4)nccc3[nH]c2=O)n1 [Example 203]
51 | -13 | 1.16 | CCc1noc(-c2cc3c(-c4cccc(C)c4)nccc3[nH]c2=O)n1 [Example 206]
52 | 24 | 0.82 | CCc1noc(-c2cc3c(-c4ccco4)nccc3[nH]c2=O)n1 [Example 211]
53 | 27 | 1.26 | CCc1noc(-c2cc3c(-c4ccsc4)nccc3[nH]c2=O)n1 [Example 212]
54 | -12 | 3.57 | CC(C)c1noc(-c2cc3c(C4CC4)nccc3[nH]c2=O)n1 [Example 224]
55 | – | 1.46 | CC(C)c1noc(-c2cc3c(-c4cccc(F)c4)nccc3[nH]c2=O)n1 [Example 227]
56 | – | 0.9 | CC(C)c1noc(-c2cc3c(-c4cccs4)nccc3[nH]c2=O)n1 [Example 230]
57 | – | 0.71 | CC(C)c1noc(-c2cc3c(-c4ccsc4)nccc3[nH]c2=O)n1 [Example 231]
58 | – | 6.48 | Cc1nccc2[nH]c(=O)c(-c3nc(C4CC4)no3)cc12 [Example 232]
59 | – | 0.84 | O=c1[nH]c2ccnc(C3CC3)c2cc1-c1nc(C2CC2)no1 [Example 234]
60 | – | 0.91 | O=c1[nH]c2ccnc(-c3ccccc3)c2cc1-c1nc(C2CC2)no1 [Example 235]
61 | – | 1.61 | O=c1[nH]c2ccnc(-c3ccccc3F)c2cc1-c1nc(C2CC2)no1 [Example 236]
62 | – | 1.86 | O=c1[nH]c2ccnc(-c3cccc(F)c3)c2cc1-c1nc(C2CC2)no1 [Example 237]
63 | – | 1.38 | O=c1[nH]c2ccnc(-c3ccc(F)cc3)c2cc1-c1nc(C2CC2)no1 [Example 238]
64 | – | 1.87 | Cc1ccccc1-c1nccc2[nH]c(=O)c(-c3nc(C4CC4)no3)cc12 [Example 242]
65 | – | 1.81 | Cc1cccc(-c2nccc3[nH]c(=O)c(-c4nc(C5CC5)no4)cc23)c1 [Example 243]
66 | – | 1.46 | O=c1[nH]c2ccnc(-c3cccs3)c2cc1-c1nc(C2CC2)no1 [Example 246]
67 | – | 1.91 | CCc1nnc(-c2cc3c(-c4ccccc4)nccc3[nH]c2=O)o1 [Example 311]
